System: hepatitis B virus
Experiment: Adefovir dipivoxil therapy of HBeAg positive chronic hepatitis B patients (Cohort A)
Format: in vivo, human
Method: Patient cohort A: 49 HBeAg positive patients, all patients accepted therapy of adefovir dipivoxil (10 mg/day), for 96 weeks in total, and were follow-up visited for 12 weeks after stop of therapy.
The above patients before therapy all met the criteria of disease adaptable for therapy as recommended by the Guide of Clinical Management of Chronic Hepatitis B of APASL: HBsAg was positive for consecutive 1 year or more, HBeAg was positive and anti-HBe was negative, serum ALT level was higher than 2 times of ULN; the patients were chosen to exclude possibility of having accompanied infection of hepatitis C virus (HCV), human immunodeficiency virus (HIV), hepatitis D virus (HDV), hepatitis E virus (HEV), and have no clinical medicine evidence of having accompanied autoimmune or metabolic liver diseases.
It was performed according to the method described in section 4.2 of Example 4.
It was performed according to the method described in section 4.3 of Example 4.
Main therapeutic end was defined when HBeAg seroconversion occurred at follow-up visit end.
All statistic methods were performed according to those described in Example 4.

CC(C)(C)C(=O)OCOP(=O)(COCCn1cnc2c(N)ncnc21)OCOC(=O)C(C)(C)C [adefovir dipivoxil]
average increase (bounce) of serum anti-HBc level after therapy (108 weeks versus therapy end (96 weeks)): 0.29 log10 IU/ml | decrease of average HBV DNA level at follow-up end versus before therapy (HBc-High group (baseline anti-HBc ≥29000 IU/ml, n=16)): 3.48±2.24 log10 copies/mL | decrease of average HBV DNA level at follow-up end versus before therapy (HBc-Low group (baseline anti-HBc <29000 IU/ml, n=33)): 1.69±2.05 log10 copies/mL | therapeutic effective rate (HBeAg seroconversion at follow-up visit end) (all 49 patients, 10 mg/day for 96 weeks, follow-up 12 weeks after stop): 18.4% | response rate (HBeAg seroconversion after therapy) (baseline anti-HBc 9000-29000 IU/ml (n=19)): 10.5% | patients with HBeAg seroconversion after therapy (baseline anti-HBc <9000 IU/ml (16 patients as printed)): none | response rate (HBeAg seroconversion after therapy) (baseline anti-HBc ≥29000 IU/ml, three-group analysis): 43.8% | decline of average serum anti-HBc level per 12 weeks (baseline to 60 weeks after beginning of therapy): 0.20±0.05 log10 IU/mL | ratio of occurrence rates (Risk Ratio, RR) of HBeAg seroconversion between high and low anti-HBc groups (cutoff 29000 IU/ml baseline anti-HBc): 7.22 | effective rate (HBeAg seroconversion at follow-up visit end) (patients with baseline anti-HBc greater than 29000 IU/ml (n=16)): 43.8% | effective rate (HBeAg seroconversion at follow-up visit end) (patients with baseline anti-HBc less than 29000 IU/ml (n=33)): 6.1%

From patent publication US9952217B2, “Anti-HBc quantitative detection method and uses thereof in monitoring and controlling disease progression of chronic hepatitis B patient and in predicting therapeutic effect” (priority 2012, dated 2018)
